System: freely moving rats
Assay: Sleep study of (R)-amisulpride (EEG/EMG sleep architecture)
Format: in vivo, rat
Protocol: Rapid eye movement (REM) sleep time, non-rapid eye movement (NREM) sleep time, WAKE time were measured using electroencephalogram (EEG) and electromyogram (EMG) recordings. […] EEG and EMG recordings were made for 6 hr starting at the beginning of the light phase. Vehicle (0.05 N HCl/0.5% Methyl Cellulose 400 solution) or dosing suspensions were orally administered 10 min before the beginning of light phase. The volume of administration was 5 mL/kg. The order of drug treatment varied pseudo-randomly and at least 1 week was allowed between the experiments for individual animals.
A radio transmitter (TL11M2-F40-EET; Data Science International, New Brighton, Minn., USA) was implanted subcutaneously in the back of anesthetized animals, and a pair of electrode wires was stereotaxically implanted into the skull in the following locations: one in the frontoparietal (2 mm anterior to the bregma and 2 mm left to the midline), and the other in parietal (5 mm posterior to the bregma and 2 mm right to the midline) areas. The EEG electrodes were fixed using dental cement. Electromyograms (EMG) were recorded from the dorsal neck muscle. The animals, then, were allowed at least 1 week recovery in individual plastic cages before EEG/EMG recording. EEG/EMG were recorded in the home cages in a soundproof box using Dataquest A.R.T. software (Data Science International, New Brighton, Minn., USA) at a sampling rate of 500 Hz.
Sleep stage analysis was conducted off-line using Sleepsign software (KISSEI COMTEC CO., LTD, Nagano, Japan). Electrographic activity of 10-sec epochs were analyzed and each epoch was automatically assigned as WAKE, REM, and NREM based on the waveforms of EEG and EMG according to the following definitions: WAKE was defined as a condition in which EMG exceeded the individual threshold, NREM was defined as a condition in which the power of delta waves (0.5-4 Hz) exceeded the individual threshold with no EMG activity, and REM was defined as a condition in which the power of theta waves (4-8 Hz) exceeded 40% of the total power of frequencies between 0.5 and 80 Hz in the presence of no EMG activity. The duration of each REM, WAKE, and NREM periods were calculated by summing time spent in each condition during sleep every 2 hours.
All data are expressed as means±S.E.M. REM sleep, NREM sleep time, and WAKE time each of sequential 2-hr periods were compared statistically using a repeated measures two-way ANOVA, followed by post-hoc Dunnett tests.

Compound: CCN1CCC[C@@H]1CNC(=O)c1cc(S(=O)(=O)CC)c(N)cc1OC [(R)-amisulpride, R-4-Amino-N-[(1-ethyl-2-pyrrolidinyl)methyl]-5-(ethylsulfonyl)-2-methoxybenzamide]
- REM sleep duration (rat, 100 mg/kg p.o., 0-2 hr and 2-4 hr periods after administration): significant reductions
- NREM sleep time (rat, 10, 30, 100 mg/kg p.o.): no observed effect
- WAKE time (rat, 10, 30, 100 mg/kg p.o.): no observed effect
- REM sleep duration (rat, 10, 30, 100 mg/kg p.o., light phase): reduced REM sleep duration in dose-dependent manner
